According to patent publication US4278686A, “Carbapenum derivatives, a process for their preparation and their use in pharmaceutical compositions and intermediates” (Beecham Group Limited, priority 1978, dated 1981):
Read-outs that look alike come from different tables or passages of the source.

Key:
Assay type in all cases: cell-based
Staph. aureus Russell = experiment: standard MIC test, Staph. aureus Russell (DST agar+5% horse blood); conditions: Staphylococcus aureus
Klebsiella aerogenes A [1] = experiment: standard MIC test, Klebsiella aerogenes A (DST agar+5% horse blood)
Proteus rettgeri WM 16 = experiment: standard MIC test, Proteus rettgeri WM 16 (DST agar+5% horse blood); conditions: Providencia rettgeri, WM16
Strep. faecalis I = experiment: standard MIC test, Strep. faecalis I (DST agar+5% horse blood); conditions: Enterococcus faecalis
E. coli 0111 = experiment: standard MIC test, E. coli 0111 (DST agar+5% horse blood); conditions: Escherichia coli
Proteus vulgaris WO 91 = experiment: standard MIC test, Proteus vulgaris WO 91 (DST agar+5% horse blood); conditions: WO91
Enterobacter cloacae M 1 = experiment: standard MIC test, Enterobacter cloacae M 1 (DST agar+5% horse blood); conditions: M1
Ps aeruginosa A = experiment: standard MIC test, Ps aeruginosa A (DST agar+5% horse blood)
Serratia marcescens US20 [2] = experiment: standard MIC test, Serratia marcescens US20 (DST agar+5% horse blood)
Staph. aureus Oxford = experiment: standard MIC test, Staph. aureus Oxford (DST agar+5% horse blood); conditions: Staphylococcus aureus
Proteus mirabilis 0977 = experiment: standard MIC test, Proteus mirabilis 0977 (DST agar+5% horse blood)
[3] = test system: Salmonella typhimurium CT10; experiment: standard MIC test, Salmonella typhimurium CT10 (DST agar+5% horse blood); conditions: Salmonella enterica
Shigella sonnei MB 11967 [4] = experiment: standard MIC test, Shigella sonnei MB 11967 (DST agar+5% horse blood); conditions: MB11967
Staph. aureus 1517 = experiment: standard MIC test, Staph. aureus 1517 (DST agar+5% horse blood); conditions: Staphylococcus aureus
Proteus morganii I 580 = experiment: standard MIC test, Proteus morganii I 580 (DST agar+5% horse blood); conditions: Morganella morganii, I580
Citrobacter freundii E8 [5] = experiment: standard MIC test, Citrobacter freundii E8 (DST agar+5% horse blood)
Citrobacter freundii E8 [6] = experiment: minimum inhibitory concentration, Citrobacter freundii E8 (DST agar+10% horse blood)
Description: (§1) The minimum inhibitory concentrations (MIC) of the compound (e54) was determined using a standard DST agar+10% horse blood substrate. The tests used an undiluted inoculum of bacteria. […]
(§2) The minimum inhibitory concentrations (MIC) of this compound was determined using a standard DST agar+10% horse blood substrate.
(§3) The minimum inhibitory concentrations (MIC) of this compound was determined using a standard DST agar+10% horse blood substrate. The tests used an undiluted inoculum of bacteria.

Proteus rettgeri WM16 = experiment: minimum inhibitory concentration, Proteus rettgeri WM16 (DST agar+10% horse blood); conditions: Providencia rettgeri
Description: as §1, §2, §3

Pseudomonas aeruginosa A = experiment: minimum inhibitory concentration, Pseudomonas aeruginosa A (DST agar+10% horse blood)
Description: as §1, §2, §3

Bacillus subtilis A = experiment: minimum inhibitory concentration, Bacillus subtilis A (DST agar+10% horse blood)
Description: as §1, §2, §3

E. coli ESS = experiment: minimum inhibitory concentration, E. coli ESS (DST agar+10% horse blood); conditions: Escherichia coli
Description: as §1, §2, §3

[7] = test system: Staphylococcus aureus Russell; experiment: minimum inhibitory concentration, Staphylococcus aureus Russell (DST agar+10% horse blood)
Description: as §1, §2, §3

[8] = test system: Streptococcus pyogenes CN10; experiment: minimum inhibitory concentration, Streptococcus pyogenes CN10 (DST agar+10% horse blood)
Description: as §1, §2, §3

Proteus vulgaris WO91 = experiment: minimum inhibitory concentration, Proteus vulgaris WO91 (DST agar+10% horse blood)
Description: as §1, §2, §3

Proteus morganii I580 = experiment: minimum inhibitory concentration, Proteus morganii I580 (DST agar+10% horse blood); conditions: Morganella morganii, Proteus morganii I580, DST agar+10% horse blood, read-out: MIC
Description: The minimum inhibitory concentrations (MIC) of the compound (e54) was determined using a standard DST agar+10% horse blood substrate. The tests used an undiluted inoculum of bacteria.
Sodium (5R,6S)-3-(2-acetamidoethylthio)--6-ethyl-7-oxo-1-azabicyclo[3.2.0]-hept-2-ene-2-carboxylate [drawing 60] p-Methoxycarbonylbenzyl (5R,6S)-3-(2-acetamidoethylthio)-6-ethyl-7-oxo-1-azabicyclo[3.2.0]hept-2-ene-2-carboxylate (e58) (18 mg) was added to the cathodic compartment of an H-type divided two-compartment electrochemical cell, with a mercury cathode and a platinum anode. The cell contained degassed 0.1 M n-Bu4 NI in dimethylformamide as electrolyte. The volume of the catholyte was about 15 ml [glacial acetic acid (about 10 mg) added] and the volume of the anolyte was about 8 ml. A potentiostat was employed to fix the potential of the cathode at -1.9 V with respect to the standard calomel electrode, and the initial current, about 56 mA, fell to about 15 mA after about 15 min. The catholyte was removed from the cell and the solvent was evaporated in vacuo. The residue was taken up in CH2 Cl2 (10 ml) and washed with water (10 ml). The aqueous phase was separated and washed with CH2 Cl2. The aqueous phase, containing the tetrabutylammonium salt corresponding to (e63) was passed through an Amberlite IR 120 (Na form) column (17×1 cm) and the eluate was reduced to low volume by evaporation in vacuo. The residue was passed through a Biogel P-2 column, to yield fractions containing sodium (5R,6S)-3-(2-acetamidoethylthio)-6-ethyl-7-oxo-1-azabicyclo[3.2.0]hept-2-ene-2-carboxylate (e63) having λmax 298 nm. The minimum inhibitory concentrations (MIC) of this compound was determined using a standard DST agar+10% horse blood substrate.
Sodium (5R,6S)-3-[(E)-2-acetamidoethenylthio]-6-ethyl-7-oxo-1-azabicyclo[3.2.0]hept-2-ene-2-carboxylate [drawing 68] p-Methoxycarbonylbenzyl (5R,6S)-3-[(E)-2-acetamidoethenylthio]-6-ethyl-7-oxo-1-azabicyclo[3.2.0]hept-2-ene-2-carboxylate (e72) (64 mg) in solution in 0.1 M (n-C4 H9)4 NBF4 in dry DMF was added to the cathodic compartment of a divided cylindrical electrochemical cell, with a mercury cathode and platinum anode. The volume of electrolyte in the cathodic compartment was about 25 ml, and in the anodic compartment about 10 ml. Acetic acid (12 mg) was added to the cathodic compartment and ethanol (250 mg) was added to the anodic compartment. The cell was degassed by passing argon for 30 min. The potentiostat was engaged to maintain the potential of the cathode at -1.9 V w.r.t. standard calomel electrode. The initial current (40 mA) fell to about 5 mA after 25 min. The solvent was removed from the catholyte by evaporation in vacuo and the residual oil was taken up in CH2 Cl2 (20 ml) and extracted with water (15 ml) containing sodium tetrafluoroborate (100 mg). The aqueous extract was washed with CH2 Cl2 and then passed down an Amberlite 1R 120 column (1×20 cm) in the sodium form. The volume of the eluate was reduced to about 5 ml by evaporation in vacuo and loaded onto a Biogel P-2 column (18×3 cm). Elution with water yielded fractions containing sodium (5R,6S)-3-[(E)-2-acetamidoethenylthio]-6-ethyl-7-oxo-1-azabicyclo[3.2.0]hept-2-ene-2-carboxylate (e73) λmax 308 nm. The minimum inhibitory concentrations (MIC) of this compound was determined using a standard DST agar+10% horse blood substrate.
Sodium (5R,6R)-3-[(E)-2-acetamidoethenylthio]-6-(1-benzylthioethyl)-7-oxo-1-azabicyclo[3.2.0]hept-2-ene-2-carboxylate [drawing 87] The least polar crystalline isomer of the ester (e93) (40 mg) obtained in Example 70 was added to a mixture of 5% Pd on C (60 mg) in 20% aqueous dioxan (5 ml) which had been prehydrogenated for 0.5 h. Hydrogenation was continued for 4 h and the mixture was filtered through Celite after adding NaHCO3 (7 mg) and water (10 ml). The solution was concentrated to a volume of about 10 ml and was then washed with ethyl acetate (3×30 ml). […]

[9] = test system: Staphylococcus aureus 1517; experiment: minimum inhibitory concentration, Staphylococcus aureus 1517 (DST agar+10% horse blood)
Description: as §1, §2, §3

[10] = test system: Streptococcus pneumoniae CN33; experiment: minimum inhibitory concentration, Streptococcus pneumoniae CN33 (DST agar+10% horse blood)
Description: as §1, §2, §3

Serratia marcescens US20 [11] = experiment: minimum inhibitory concentration, Serratia marcescens US20 (DST agar+10% horse blood)
Description: as §1, §2, §3

Proteus mirabilis C977 = experiment: minimum inhibitory concentration, Proteus mirabilis C977 (DST agar+10% horse blood)
Description: as §1, §2, §3

Streptococcus faecalis I = experiment: minimum inhibitory concentration, Streptococcus faecalis I (DST agar+10% horse blood); conditions: Enterococcus faecalis
Description: as §1, §2, §3

[12] = test system: Staphylococcus aureus Oxford; experiment: minimum inhibitory concentration, Staphylococcus aureus Oxford (DST agar+10% horse blood)
Description: as §1, §2, §3

[13] = test system: Salmonella typhimurium CT10; experiment: minimum inhibitory concentration, Salmonella typhimurium CT10 (DST agar+10% horse blood); conditions: Salmonella enterica
Description: as §1, §2, §3

Escherichia coli JT 39 = experiment: minimum inhibitory concentration, Escherichia coli JT 39 (DST agar+10% horse blood)
Description: as §1, §2, §3

Enterobacter cloacae N1 = experiment: minimum inhibitory concentration, Enterobacter cloacae N1 (DST agar+10% horse blood)
Description: as §1, §2, §3

Shigella sonnei MB 11967 [14] = experiment: minimum inhibitory concentration, Shigella sonnei MB 11967 (DST agar+10% horse blood)
Description: as §1, §2, §3

Klebsiella aerogenes A [15] = experiment: minimum inhibitory concentration, Klebsiella aerogenes A (DST agar+10% horse blood)
Description: as §1, §2, §3

Escherichia coli 0111 = experiment: minimum inhibitory concentration, Escherichia coli 0111 (DST agar+10% horse blood)
Description: as §1, §2, §3

## CCSC(C)[C@H]1C(=O)N2C(C(=O)[O-])=C(S/C=C/NC(C)=O)C[C@H]12.[Na+] (stereo partly drawn) [e52, Sodium (5R,6R)-3-[(E)-2-acetamidoethenylthio]-6-(-1-ethylthio-ethyl)-7-oxo-1-azabicyclo[3.2.0]hept2-ene-2-carboxylate]
Staph. aureus Russell
  MIC: 0.8 µg/mL
Klebsiella aerogenes A [1]
  MIC: 0.8 µg/mL
Proteus rettgeri WM 16
  MIC: 6.25 µg/mL
Strep. faecalis I
  MIC: 50 µg/mL
E. coli 0111
  MIC: 3.1 µg/mL
Proteus vulgaris WO 91
  MIC: 6.25 µg/mL
Enterobacter cloacae M 1
  MIC: 12.5 µg/mL
Ps aeruginosa A
  MIC: 100 µg/mL
Serratia marcescens US20 [2]
  MIC: 6.25 µg/mL
Staph. aureus Oxford
  MIC: 0.8 µg/mL
Proteus mirabilis 0977
  MIC: 12.5 µg/mL
[3]
  MIC: 6.25 µg/mL
Shigella sonnei MB 11967 [4]
  MIC: 3.1 µg/mL
Staph. aureus 1517
  MIC: 6.25 µg/mL
Proteus morganii I 580
  MIC: 12.5 µg/mL
Citrobacter freundii E8 [5]
  MIC: 3.1 µg/mL

## CSC(C)[C@H]1C(=O)N2C(C(=O)[O-])=C(S/C=C/NC(C)=O)C[C@H]12.[Na+] (single isomer, unassigned) [e101]
Citrobacter freundii E8 [6]; undiluted inoculum
  MIC: 5 µg/mL
Proteus rettgeri WM16; undiluted inoculum
  MIC: 5 µg/mL
Pseudomonas aeruginosa A; undiluted inoculum
  MIC: 50 µg/mL
Bacillus subtilis A; undiluted inoculum
  MIC: 1.2 µg/mL
E. coli ESS; undiluted inoculum
  MIC: 1.2 µg/mL
[7]; undiluted inoculum
  MIC: 0.5 µg/mL
[8]; undiluted inoculum
  MIC: 0.2 µg/mL
Proteus vulgaris WO91; undiluted inoculum
  MIC: 5 µg/mL
Proteus morganii I580; undiluted inoculum
  MIC: 12.5 µg/mL
[9]; undiluted inoculum
  MIC: 12.5 µg/mL
[10]; undiluted inoculum
  MIC: 0.1 µg/mL
Serratia marcescens US20 [11]; undiluted inoculum
  MIC: 5 µg/mL
Proteus mirabilis C977; undiluted inoculum
  MIC: 12.5 µg/mL
Streptococcus faecalis I; undiluted inoculum
  MIC: 12.5 µg/mL
[12]; undiluted inoculum
  MIC: 0.5 µg/mL
[13]; undiluted inoculum
  MIC: 1.2 µg/mL
Escherichia coli JT 39; JT39, undiluted inoculum
  MIC: 2.5 µg/mL
Enterobacter cloacae N1; Enterobacter cloacae N1, undiluted inoculum
  MIC: 2.5 µg/mL
Shigella sonnei MB 11967 [14]; MB11967, undiluted inoculum
  MIC: 1.2 µg/mL
Klebsiella aerogenes A [15]; undiluted inoculum
  MIC: 2.5 µg/mL
Escherichia coli 0111; undiluted inoculum
  MIC: 2.5 µg/mL

## CC(=O)N/C=C/SC1=C(C(=O)[O-])N2C(=O)[C@H](C(C)SCc3ccccc3)[C@H]2C1.[Na+] (stereo partly drawn) [e94, Sodium (5R,6R)-3-[(E)-2-acetamidoethenylthio]-6-(1-benzylthioethyl)-7-oxo-1-azabicyclo[3.2.0]hept-2-ene-2-carboxylate]
Citrobacter freundii E8 [6]
  MIC: 6.2 µg/mL
Proteus rettgeri WM16
  MIC: 6.2 µg/mL
Pseudomonas aeruginosa A
  MIC: 50 µg/mL
Bacillus subtilis A
  MIC: 1.6 µg/mL
E. coli ESS
  MIC: 0.4 µg/mL
[7]
  MIC: 0.8 µg/mL
[8]
  MIC: 0.4 µg/mL
Proteus vulgaris WO91
  MIC: 6.2 µg/mL
Proteus morganii I580
  MIC: 6.2 µg/mL
[9]
  MIC: 50 µg/mL
[10]
  MIC: 0.2 µg/mL
Serratia marcescens US20 [11]
  MIC: 6.2 µg/mL
Proteus mirabilis C977
  MIC: 12.5 µg/mL
Streptococcus faecalis I
  MIC: 25 µg/mL
[12]
  MIC: 0.4 µg/mL
[13]
  MIC: 1.6 µg/mL
Escherichia coli JT 39; JT39
  MIC: 3.1 µg/mL
Enterobacter cloacae N1; Enterobacter cloacae, Enterobactor cloacae N1
  MIC: 3.1 µg/mL
Shigella sonnei MB 11967 [14]; MB11967
  MIC: 1.6 µg/mL
Klebsiella aerogenes A [15]
  MIC: 3.1 µg/mL
Escherichia coli 0111
  MIC: 3.1 µg/mL
